Measured values: ChEMBL document CHEMBL5653628, “Selective JAK3 Inhibitors with a Covalent Reversible Binding Mode Targeting a New Induced Fit Binding Pocket” (Cell Chem Biol, 2016)

How the values were obtained:
[1] = molecular target: Cytoplasmic tyrosine-protein kinase BMX (Homo sapiens, UniProt P51813); test: Inhibition of BMX (unknown origin)
[2] = molecular target: Epidermal growth factor receptor (Homo sapiens, UniProt P00533); test: Inhibition of EGFR (unknown origin)
[3] = molecular target: Receptor tyrosine-protein kinase erbB-2 (Homo sapiens, UniProt P04626); test: Inhibition of ERB-B2 (unknown origin)
[4] = molecular target: Tyrosine-protein kinase Tec (Homo sapiens, UniProt P42680); test: Inhibition of TEC (unknown origin)
[5] = molecular target: Tyrosine-protein kinase TXK (Homo sapiens, UniProt P42681); test: Inhibition of TXK (unknown origin)
[6] = molecular target: T1, Tyrosine-protein kinase JAK3 (Homo sapiens, UniProt P52333)
T1 sequence (P52333 whole entry): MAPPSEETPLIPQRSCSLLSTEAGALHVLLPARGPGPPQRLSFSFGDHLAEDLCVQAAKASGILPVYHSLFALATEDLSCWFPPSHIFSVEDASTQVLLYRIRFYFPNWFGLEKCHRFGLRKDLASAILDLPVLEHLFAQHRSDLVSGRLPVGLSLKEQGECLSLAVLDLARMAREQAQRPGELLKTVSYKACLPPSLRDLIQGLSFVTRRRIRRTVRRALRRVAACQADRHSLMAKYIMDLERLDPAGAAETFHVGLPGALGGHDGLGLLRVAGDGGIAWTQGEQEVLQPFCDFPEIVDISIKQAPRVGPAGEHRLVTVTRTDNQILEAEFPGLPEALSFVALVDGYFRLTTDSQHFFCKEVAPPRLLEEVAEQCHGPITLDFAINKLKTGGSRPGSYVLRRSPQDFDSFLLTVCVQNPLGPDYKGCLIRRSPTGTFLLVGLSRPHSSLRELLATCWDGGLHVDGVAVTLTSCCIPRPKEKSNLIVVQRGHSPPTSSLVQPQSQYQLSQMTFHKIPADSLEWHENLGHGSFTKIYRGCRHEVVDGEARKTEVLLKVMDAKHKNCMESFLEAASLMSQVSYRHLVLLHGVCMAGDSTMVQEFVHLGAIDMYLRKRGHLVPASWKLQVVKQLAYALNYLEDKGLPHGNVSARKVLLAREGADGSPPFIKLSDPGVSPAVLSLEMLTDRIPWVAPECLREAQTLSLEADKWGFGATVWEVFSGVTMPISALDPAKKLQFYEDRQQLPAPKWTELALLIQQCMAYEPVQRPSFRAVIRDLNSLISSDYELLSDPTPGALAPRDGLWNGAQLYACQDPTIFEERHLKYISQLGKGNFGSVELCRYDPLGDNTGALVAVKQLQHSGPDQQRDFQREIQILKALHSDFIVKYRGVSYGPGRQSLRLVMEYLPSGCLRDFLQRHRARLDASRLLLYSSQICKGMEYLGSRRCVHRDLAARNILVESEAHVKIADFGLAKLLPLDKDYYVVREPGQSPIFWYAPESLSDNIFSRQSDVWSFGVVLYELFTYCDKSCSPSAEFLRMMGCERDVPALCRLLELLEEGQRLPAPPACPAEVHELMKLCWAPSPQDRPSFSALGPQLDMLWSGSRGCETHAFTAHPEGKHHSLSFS
Description: Inhibition of JAK3 (unknown origin) in presence of ATP by radiometric assay

[7] = molecular target: Tyrosine-protein kinase BTK (Homo sapiens, UniProt Q06187); test: Inhibition of BTK (unknown origin) by trFRET binding assay
[8] = molecular target: T1, Tyrosine-protein kinase JAK3; test: Inhibition of JAK3 (unknown origin) by trFRET binding assay
[9] = molecular target: Vascular endothelial growth factor receptor 1 (Homo sapiens, UniProt P17948); test: Inhibition of FLT1 (unknown origin) by trFRET binding assay
[10] = molecular target: Tyrosine-protein kinase Fyn (Homo sapiens, UniProt P06241); test: Inhibition of FYN (unknown origin) by trFRET binding assay
[11] = molecular target: Vascular endothelial growth factor receptor 2 (Homo sapiens, UniProt P35968); test: Inhibition of KDR (unknown origin) by trFRET binding assay
[12] = molecular target: Proto-oncogene tyrosine-protein kinase Src (Homo sapiens, UniProt P12931); test: Inhibition of SRC (unknown origin) by trFRET binding assay
[13] = molecular target: Serine/threonine-protein kinase 16 (Homo sapiens, UniProt O75716); test: Inhibition of STK16 (unknown origin) by trFRET binding assay
Sequence of Serine/threonine-protein kinase 16 (O75716 whole entry): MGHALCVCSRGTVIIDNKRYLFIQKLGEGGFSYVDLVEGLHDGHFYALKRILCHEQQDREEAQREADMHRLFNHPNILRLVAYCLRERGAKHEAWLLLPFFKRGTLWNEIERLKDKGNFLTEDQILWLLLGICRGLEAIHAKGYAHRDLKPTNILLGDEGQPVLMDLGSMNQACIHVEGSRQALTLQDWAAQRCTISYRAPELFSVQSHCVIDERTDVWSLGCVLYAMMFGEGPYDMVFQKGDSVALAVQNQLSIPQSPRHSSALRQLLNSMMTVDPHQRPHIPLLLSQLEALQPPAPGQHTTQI

Sequence of Cytoplasmic tyrosine-protein kinase BMX (P51813 whole entry): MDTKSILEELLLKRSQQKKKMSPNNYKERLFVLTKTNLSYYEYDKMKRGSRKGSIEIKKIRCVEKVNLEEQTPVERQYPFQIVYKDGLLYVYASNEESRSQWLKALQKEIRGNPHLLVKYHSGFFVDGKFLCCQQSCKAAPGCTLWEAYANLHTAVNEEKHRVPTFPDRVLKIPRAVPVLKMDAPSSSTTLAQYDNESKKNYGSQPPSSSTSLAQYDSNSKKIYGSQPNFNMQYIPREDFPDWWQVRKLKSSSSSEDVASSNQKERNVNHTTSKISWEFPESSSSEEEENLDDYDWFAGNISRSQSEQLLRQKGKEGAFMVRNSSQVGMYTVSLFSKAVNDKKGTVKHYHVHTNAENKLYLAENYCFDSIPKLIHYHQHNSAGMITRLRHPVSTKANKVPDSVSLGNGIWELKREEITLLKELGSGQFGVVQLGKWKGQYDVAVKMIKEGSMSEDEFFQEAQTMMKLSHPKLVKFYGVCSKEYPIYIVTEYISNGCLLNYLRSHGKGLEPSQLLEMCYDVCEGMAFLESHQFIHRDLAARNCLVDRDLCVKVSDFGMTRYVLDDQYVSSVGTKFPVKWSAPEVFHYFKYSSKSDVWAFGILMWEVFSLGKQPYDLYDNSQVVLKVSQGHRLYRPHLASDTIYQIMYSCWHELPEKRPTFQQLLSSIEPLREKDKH
Sequence of Tyrosine-protein kinase Fyn (P06241 whole entry): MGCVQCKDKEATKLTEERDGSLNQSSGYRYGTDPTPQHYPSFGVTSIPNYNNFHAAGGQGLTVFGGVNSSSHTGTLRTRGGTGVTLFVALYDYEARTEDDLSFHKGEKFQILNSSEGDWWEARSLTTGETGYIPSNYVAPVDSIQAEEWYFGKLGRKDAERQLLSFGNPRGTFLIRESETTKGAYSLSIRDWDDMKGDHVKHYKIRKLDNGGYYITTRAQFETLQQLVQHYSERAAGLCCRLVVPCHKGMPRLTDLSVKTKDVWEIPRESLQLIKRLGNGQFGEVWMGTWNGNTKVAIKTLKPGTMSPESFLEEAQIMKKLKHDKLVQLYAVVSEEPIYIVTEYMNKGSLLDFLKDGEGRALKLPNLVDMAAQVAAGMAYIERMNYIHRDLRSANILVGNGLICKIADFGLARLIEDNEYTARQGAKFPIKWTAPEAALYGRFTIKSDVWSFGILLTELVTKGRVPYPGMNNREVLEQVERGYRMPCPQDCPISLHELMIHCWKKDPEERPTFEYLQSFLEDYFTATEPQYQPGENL
Sequence of Epidermal growth factor receptor (P00533 whole entry): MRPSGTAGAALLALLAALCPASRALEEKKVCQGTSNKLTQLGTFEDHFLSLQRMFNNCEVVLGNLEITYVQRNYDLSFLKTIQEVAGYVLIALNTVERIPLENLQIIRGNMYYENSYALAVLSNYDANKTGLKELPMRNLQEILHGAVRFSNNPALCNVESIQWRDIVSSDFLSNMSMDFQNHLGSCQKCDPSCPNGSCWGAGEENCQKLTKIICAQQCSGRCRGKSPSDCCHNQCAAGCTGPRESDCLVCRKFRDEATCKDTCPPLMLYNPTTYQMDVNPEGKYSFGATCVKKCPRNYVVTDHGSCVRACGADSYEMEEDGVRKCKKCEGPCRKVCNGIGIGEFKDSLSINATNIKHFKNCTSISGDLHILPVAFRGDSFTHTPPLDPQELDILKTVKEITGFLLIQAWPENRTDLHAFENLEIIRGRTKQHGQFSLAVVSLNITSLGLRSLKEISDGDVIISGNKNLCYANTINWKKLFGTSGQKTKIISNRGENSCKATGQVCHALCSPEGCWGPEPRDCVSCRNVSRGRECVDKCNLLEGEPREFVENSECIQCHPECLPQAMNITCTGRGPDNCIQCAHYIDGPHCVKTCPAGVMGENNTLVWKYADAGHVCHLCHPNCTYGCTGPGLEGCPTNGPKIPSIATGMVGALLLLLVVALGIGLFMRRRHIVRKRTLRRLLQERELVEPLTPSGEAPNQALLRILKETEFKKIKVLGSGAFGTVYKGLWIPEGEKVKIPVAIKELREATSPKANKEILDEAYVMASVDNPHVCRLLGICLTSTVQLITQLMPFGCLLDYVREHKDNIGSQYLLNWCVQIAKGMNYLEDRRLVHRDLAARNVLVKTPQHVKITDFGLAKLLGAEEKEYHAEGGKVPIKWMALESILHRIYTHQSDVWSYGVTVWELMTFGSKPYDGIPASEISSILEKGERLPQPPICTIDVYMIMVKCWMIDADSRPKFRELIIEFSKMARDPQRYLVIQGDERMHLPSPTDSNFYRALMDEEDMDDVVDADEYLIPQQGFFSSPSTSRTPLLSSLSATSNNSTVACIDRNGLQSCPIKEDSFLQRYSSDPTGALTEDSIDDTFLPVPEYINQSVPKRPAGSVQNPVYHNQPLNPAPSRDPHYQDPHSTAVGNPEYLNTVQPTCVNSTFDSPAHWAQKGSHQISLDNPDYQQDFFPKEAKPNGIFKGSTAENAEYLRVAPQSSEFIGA
Sequence of Tyrosine-protein kinase Tec (P42680 whole entry): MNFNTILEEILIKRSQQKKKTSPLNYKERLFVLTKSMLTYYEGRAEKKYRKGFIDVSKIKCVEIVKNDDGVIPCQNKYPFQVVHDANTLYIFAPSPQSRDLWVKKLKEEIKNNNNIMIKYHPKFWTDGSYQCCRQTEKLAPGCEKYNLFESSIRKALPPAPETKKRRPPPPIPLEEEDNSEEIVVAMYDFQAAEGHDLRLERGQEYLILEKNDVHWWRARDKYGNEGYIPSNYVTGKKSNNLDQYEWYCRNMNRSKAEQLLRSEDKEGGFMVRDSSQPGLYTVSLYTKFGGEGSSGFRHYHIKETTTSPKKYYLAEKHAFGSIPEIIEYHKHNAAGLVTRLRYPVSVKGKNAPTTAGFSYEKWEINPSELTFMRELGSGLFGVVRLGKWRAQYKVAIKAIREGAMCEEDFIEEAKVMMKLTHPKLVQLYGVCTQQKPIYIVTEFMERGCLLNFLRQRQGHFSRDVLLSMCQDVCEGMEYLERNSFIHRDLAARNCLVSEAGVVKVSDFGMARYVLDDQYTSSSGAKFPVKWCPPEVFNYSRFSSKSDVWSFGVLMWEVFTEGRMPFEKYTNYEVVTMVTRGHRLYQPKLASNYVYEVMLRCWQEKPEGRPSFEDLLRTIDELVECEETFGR
Sequence of Tyrosine-protein kinase TXK (P42681 whole entry): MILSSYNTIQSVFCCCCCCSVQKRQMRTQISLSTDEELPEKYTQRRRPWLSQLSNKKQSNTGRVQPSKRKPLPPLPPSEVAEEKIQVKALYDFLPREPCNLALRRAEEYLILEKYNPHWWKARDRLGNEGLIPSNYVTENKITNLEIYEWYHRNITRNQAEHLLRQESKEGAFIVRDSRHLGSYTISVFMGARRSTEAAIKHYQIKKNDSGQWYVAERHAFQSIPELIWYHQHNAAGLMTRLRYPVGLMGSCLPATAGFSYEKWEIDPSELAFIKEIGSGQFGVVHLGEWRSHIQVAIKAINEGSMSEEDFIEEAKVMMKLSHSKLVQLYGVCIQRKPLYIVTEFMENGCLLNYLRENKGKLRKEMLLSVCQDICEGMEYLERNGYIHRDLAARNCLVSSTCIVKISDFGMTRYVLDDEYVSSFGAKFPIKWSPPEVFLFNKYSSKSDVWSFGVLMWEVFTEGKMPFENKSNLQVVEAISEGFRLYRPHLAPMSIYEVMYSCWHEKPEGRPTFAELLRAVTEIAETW
Sequence of Proto-oncogene tyrosine-protein kinase Src (P12931 2-536 limits assumed): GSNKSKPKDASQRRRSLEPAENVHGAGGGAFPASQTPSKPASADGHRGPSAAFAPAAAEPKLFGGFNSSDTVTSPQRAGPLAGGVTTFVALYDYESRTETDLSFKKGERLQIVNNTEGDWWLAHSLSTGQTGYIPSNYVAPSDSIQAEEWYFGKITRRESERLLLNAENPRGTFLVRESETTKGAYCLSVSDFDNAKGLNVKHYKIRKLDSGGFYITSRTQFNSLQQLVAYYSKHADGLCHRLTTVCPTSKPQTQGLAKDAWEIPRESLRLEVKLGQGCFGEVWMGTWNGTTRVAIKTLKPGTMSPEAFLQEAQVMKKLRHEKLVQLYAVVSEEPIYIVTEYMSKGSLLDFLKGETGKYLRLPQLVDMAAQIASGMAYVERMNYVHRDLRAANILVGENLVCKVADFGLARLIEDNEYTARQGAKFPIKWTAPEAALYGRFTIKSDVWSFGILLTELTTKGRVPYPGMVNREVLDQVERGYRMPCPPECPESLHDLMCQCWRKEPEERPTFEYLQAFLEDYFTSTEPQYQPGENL

SMILES: N#C/C(=C\c1cccc(-c2cccc3[nH]ncc23)c1)C(N)=O
- IC50 [1]: 2.41 µM
- IC50 [2]: > 10 µM
- IC50 [3]: 2.05 µM
- IC50 [4]: 6.93 µM
- IC50 [5]: 1.67 µM

SMILES: C=CC(=O)Nc1ccc2ncn(-c3cncc(Nc4ccccc4)n3)c2c1
- IC50 [6]: 0.02 µM
- IC50 [7]: 0.64 µM
- IC50 [8]: 0.3 µM
- IC50 [9]: 0.55 µM
- IC50 [10]: 0.66 µM
- IC50 [11]: 0.55 µM
- IC50 [12]: 0.98 µM
- IC50 [13]: 1 µM
